# Measured values published in US10828269B2, “Reducing muscle atrophy by administering astaxanthin” (FUJI CHEMICAL INDUSTRIES CO., LTD., priority 2004, dated 2020).
# Legend:
# diabetic db/db mice = settings: Naito Y. et al, Redox Rep 2002; cited from earlier work
# erythropoietin receptor = assay: GeneChip gene expression in renal glomerulus; type: in vivo, mouse; settings: probe 1423344_at, 0.02% in diet, 12 weeks
# Description: (§1) Type II diabetic female db/db mice and non-diabetic db/m were purchased from Clea Japan, Inc. Mice were bred under the conditions with a 12 hours light-dark cycle at a temperature of 21° C. to 25° C. For acclimation, mice were fed CE-2 (Clea Japan, Inc.) with free access to water for one week. The mice were divided into three groups each consisting of 8 mice (non-diabetic db/m, diabetic db/db, and astaxanthin-administered db/db) and each group was bred with feed ad libitum. Mice in astaxanthin-administered group were fed a diet in which 0.02% astaxanthin in terms of free astaxanthin was compounded with CE-2. Each group was bred for 12 weeks, and body weight, blood glucose levels, 8-OHdG levels in urine, albumin levels in urine, and kidney histopathology, were measured. Astaxanthin used here was AstaReal (registered trademark, Fuji Chemical Industry Co., Ltd.) 50F, which is oil composed of astaxanthin fatty acid ester and triglycerides and contains 5% astaxanthin in terms of free astaxanthin.
# (§2) After the period of test breeding, kidney was removed and frozen at −80° C. Using an LM200 system (Olympus Corporation), the renal glomerulus was cut from kidney of mice while keeping low temperature. tRNA of renal glomerulus was extracted using tRNA extraction regent “Isogen” (produced by Nippon Gene Co., Ltd.), and then preparation of cRNA and hybridization were performed according to the Affymetrix GeneChip Eukaryotic Small Sample Target Labeling Assay Ver. II.
# (§3) (1) Synthesis of first strand cDNA: 1 μL of total RNA solution and 1 of 5 μM T7-Oligo(dT) primer were mixed, heated at 70° C. for 6 minutes, and then cooled at 4° C. for 2 minutes. 3 μL of RT_Premix_1 (1.5 μL DEPC-treated water, 4 μL 5× First strand Buffer, 2 μL DTT (0.1 M), 1.5 μL dNTP Mix (10 mM), 1 μL RNase inhibitor (40 U/μL), and 2 μL Super-Script II (200 U/μL)) was added and reverse transcribed at 42° C. for 1 hour. The sample was heated at 70° C. for 10 minutes to inactivate Super Script II, and then cooled to 4° C. (2) Synthesis of second strand cDNA: 32.5 μl of SS_Premix_1 (91 μL DEPC-treated water, 30 μL 5× Second Strand Buffer, 3 μL dNTP (10 mM), 1 μL E. coli DNA ligase (10 U/μL); 4 μL E. coli DNA polymerase (10 U/μL), and 1 μL RNase H (2 U/μL)) was added to the first strand cDNA solution and allowed to react for 2 hours at 16° C. (3) To the resulting cDNA, was added 1 μL T4 DNA polymerase (5 U/μl) and allowed to react for 10 minutes at 16° C., and purified by ethanol precipitation. (4) In vitro transcription: To the dried double-stranded cDNA pellet, was added 10 μL of reagents (4 μL DEPC-treated water, 4 μL premixed NTPs, 1 μL 10× reaction buffer, and 1 μL 10× enzyme mix), and allowed to react at 37° C. in a water bath for 6 hours. (5) First cycle cRNA was purified using the RNeasy Mini Kit in accordance with the protocol in the handbook (QIAGEN). (6) Subsequently, for the amplification and labeling, the cRNA sample was mixed with random primers (0.2 μg/μL), treated at 70° C. for 10 minutes, cooled on ice for 2 minutes, 5 μL of RT_Premix_2 (5× First Strand Buffer, DTT (0.1 M), dNTP mix (10 mM), RNase inhibitor (40 U/μL), and SuperScript II (200 U/μL) was added, and allowed to react at 42° C. for 1 hour. (7) Next, Second Sstrand cDNA synthesis was carried out by adding 5 μM T7-Oligo(dT) promoter treating at 70° C. for 6 minutes, cooling at 4° C., and adding 62 μL of SS_Premix_2 (43 μL it DEPC-treated water, 15 μL 5× Second Strand Buffer, 1.5 μL dNTP mix (10 mM), and 2 μL E. coli DNA polymerase (10 U/μL)). (8) To the resulting cDNA, was treated added 1 μL of T4 DNA polymerase (5 U/μL), allowed to react at 16° C. for 10 minutes, and purified by ethanol precipitation. […]
# peroxiredoxin 1 = assay: GeneChip gene expression in renal glomerulus; type: in vivo, mouse; settings: probe 1436691_x_at, 0.02% in diet, 12 weeks
# Description: as §1, §2, §3
# catenin beta = assay: GeneChip gene expression in renal glomerulus; type: in vivo, mouse; settings: probe 1420811_a_at, 0.02% in diet, 12 weeks
# Description: as §1, §2, §3
# FK506 binding protein 1a = assay: GeneChip gene expression in renal glomerulus; type: in vivo, mouse; settings: probe 1448184_at (Table 4), 0.02% in diet, 12 weeks
# Description: as §1, §2, §3
# [1] = system: MAD homolog 4 (Dorosophia); assay: GeneChip gene expression in renal glomerulus; type: in vivo, mouse; settings: probe 1422486_a_at, 0.02% in diet, 12 weeks
# Description: as §1, §2, §3
# ring finger protein 128 = assay: GeneChip gene expression in renal glomerulus; type: in vivo, mouse; settings: probe 1449036_at, 0.02% in diet, 12 weeks
# Description: as §1, §2, §3
# [2] = system: superoxide dismutase 1, soluble; assay: GeneChip gene expression in renal glomerulus; type: in vivo, mouse; settings: 0.02% in diet, 12 weeks
# Description: as §1, §2, §3
# [3] = system: isocitrate dehydrogenase 1 (NADP+), soluble; assay: GeneChip gene expression in renal glomerulus; type: in vivo, mouse; settings: probe 1419821_s_at, 0.02% in diet, 12 weeks
# Description: as §1, §2, §3
# [4] = system: matrix metalloproteinase 8; assay: GeneChip gene expression in renal glomerulus; type: in vivo, mouse; settings: probe 1449366_at, 0.02% in diet, 12 weeks
# Description: as §1, §2, §3
# [5] = system: transforming growth factor beta 1 induced transcript 4; assay: GeneChip gene expression in renal glomerulus; type: in vivo, mouse; settings: 0.02% in diet, 12 weeks
# Description: as §1, §2, §3
structure (smiles),measurement,setting,value
"CC1=C(/C=C/C(C)=C/C=C/C(C)=C/C=C/C=C(C)/C=C/C=C(C)/C=C/C2=C(C)C(=O)C(O)CC2(C)C)C(C)(C)CC(O)C1=O (stereo not drawn) [astaxanthin, 3,3′-dihydroxy-β,β-carotene-4,4′-dione]",blood glucose level,diabetic db/db mice,reduces blood glucose level
same,diabetic nephropathy,diabetic db/db mice,has an effect on the improvement of diabetic nephropathy
same,gene expression relative ratio db/db(Ax):db/db,erythropoietin receptor,2.30
same,gene expression relative ratio db/db(Ax):db/m,erythropoietin receptor,0.71
same,gene expression relative ratio db/db(Ax):db/db,peroxiredoxin 1,0.14
same,gene expression relative ratio db/db(Ax):db/m,peroxiredoxin 1,9.19
same,gene expression relative ratio db/db(Ax):db/db,catenin beta,0.38
same,gene expression relative ratio db/db(Ax):db/m,catenin beta,12.13
same,gene expression relative ratio db/db(Ax):db/db,FK506 binding protein 1a,0.66
same,gene expression relative ratio db/db(Ax):db/m,FK506 binding protein 1a,6.50
same,gene expression relative ratio db/db(Ax):db/db,[1],1.00
same,gene expression relative ratio db/db(Ax):db/m,[1],27.86
same,gene expression relative ratio db/db(Ax):db/db,ring finger protein 128,0.1
same,gene expression relative ratio db/db(Ax):db/m,ring finger protein 128,1.62
same,gene expression relative ratio db/db(Ax):db/db,[2],0.23
same,gene expression relative ratio db/db(Ax):db/m,[2]; probe 1448184_at (Table 5),4.00
same,gene expression relative ratio db/db(Ax):db/db,[3],0.33
same,gene expression relative ratio db/db(Ax):db/m,[3],6.96
same,gene expression intensity ratio db/db(Ax):db/db,[4],2.00
same,gene expression intensity ratio db/db(Ax):db/m,[4],0.62
same,gene expression relative ratio db/db(Ax):db/db,[5]; probe 1425742_a_at,0.33
same,gene expression relative ratio db/db(Ax):db/m,[5]; probe 1425742_a_at,1.41
same,gene expression relative ratio db/db(Ax):db/db,[5]; probe 1454971_x_at,0.57
same,gene expression relative ratio db/db(Ax):db/m,[5]; probe 1454971_x_at,3.25
